Measurements as given in US5919769A, “Fucose derivatives, drugs containing the same as active ingredient, and intermediates for producing the same” (Kanebo, Ltd, priority 1995, dated 1999).

Legend:
[1] = biological target: P-selectin; test: Inhibitory test on the binding of P-selectin to sialyl Le^X (selectin-IgG chimera); settings: inhibition of P-selectin IgG chimera binding to sialyl Le^X-pentaceramide
Description: Inhibitory test on the binding of P-selectin to sialyl Le^X :
(§1) The experiment was carried out according to the method using selectin-IgG chimera, which was reported by Foxall, C. et al. (J. Cell Biol., 117, 895-902 (1992)).
(§2) Sialyl Le^X -pentaceramide was dissolved in 50% methanol in distilled water, and the solution was put into a 96-well plate in an amount of 100 pmol/well. The plate was allowed to stand at room temperature overnight, and the solvent therein was evaporated. The plate was washed with distilled water, and subjected to blocking with 50 mM imidazole buffer (pH 7.2) containing 5% BSA (bovine serum albumin) and 1 mM calcium chloride at room temperature for one hour.
(§3) Separately, to 500-fold diluted solution of each biotinylated anti-human IgG Fc and streptavidin-alkaline phosphatase conjugate with a 50 mM imidazole buffer (pH 7.2) containing 1% BSA and 1 mM calcium chloride, P-selectin IgG chimera was added to give a final concentration of 40 μg/ml, and the mixture was incubated at room temperature for 30 minutes to give the complex solution.
(§4) A test compound was dissolved in DMSO (except that the test compound h was dissolved in distilled water) to give 10 mM aqueous solution thereof, which was serially diluted with 50 mM imidazole buffer (pH 7.2) containing 1% BSA and 1 mM calcium chloride to give the solutions in 8 various concentrations (two-fold serial dilution from 20 μM). The test compound solution in each concentration and the above complex solution were mixed in equal volume, and the mixture was incubated at room temperature for 30 minutes to give the reaction solution.
(§5) After the blocking was completed, the blocking solution in the above plate was discarded, and the plate was washed with 50 mM imidazole buffer (pH 7.2), and thereto was added the above reaction solution in an amount of 50 μl/well. The plate was incubated at 37° C. for 45 minutes, and then washed three times with 50 mM imidazole buffer (pH 7.2) and washed three times with distilled water. 1M diethanolamine (pH 9.8) containing 0.01% magnesium chloride and 1 mg/ml p-nitrophenyl phosphate was put into each well in an amount of 50 μl/well, and the plate was allowed to stand for 1 to 2 hours for color development. The absorbance at 405 nm was measured, and the binding rate (%) was calculated by the following equation, based on the absorbance (X) of the wells containing a test compound at various concentrations and the absorbance (A) of the wells containing no test compound.
(§6) IC50 was evaluated by probit method from the binding rate.

[2] = biological target: L-selectin; test: Inhibitory test on the binding of L-selectin to sialyl Le^X (selectin-IgG chimera); settings: inhibition of L-selectin IgG chimera binding to sialyl Le^X-pentaceramide
Description: as §1, §2, §3, §4, §5, §6
Inhibitory test on the binding of L-selectin to sialyl Le^X :
The same procedures of Experiment 1 were repeated except that L-selectin IgG chimera (40 μg/ml) was used instead of P-selectin IgG chimera (40 μg/ml).

[3] = Inhibitory effects on ear swelling (ovalbumin-sensitized mice); assay type: in vivo, Female BALB/c mice; settings: tail vein at 2, 5 and 8 hours, 24 hours after induction
Description: Inhibitory effects on ear swelling:
(§7) Female BALB/c mice (6-weeks old) were sensitized by intraperitoneal injection of saline (0.5 ml) containing ovalbumin ([…]) and aluminum hydroxide gel (4 mg). Two weeks after the sensitization, a 1 mg/ml solution of ovalbumin in phosphate buffered saline (10 μl) was subcutaneously injected to the mice at both of the ears to induce the inflammatory response. In the non-inflammation group, phosphate buffered saline was subcutaneously injected to the sensitized mice instead.
(§8) The test compound was dissolved in 0.01N-NaOH-saline so as to be a concentration of 1 mg/ml, and the solution was diluted with saline. The test compound solution thus prepared was injected to the mice at the tail vein, at 2, 5 and 8 hours after the induction of inflammatory response, in a dosage volume of 0.1 ml/10 g of body weight (the treated group). In the control group, saline only was injected to the mice.
Twenty-four hours after the induction of inflammatory response, both of the ears were cut to collect a piece of 6 mm diameter, and the weight thereof was measured. The ear weight per area was used as an index for ear swelling. The inhibitory rate on ear swelling was calculated by the following equation. [formula] Wexp: Average ear weight in the treated group Wnega: Average ear weight in the non-inflammation group
Wcont: Average ear weight in the control group

[4] = system: cell infiltration; test: Inhibitory effects on cell infiltration (MPO activity in ear tissue of Experiment 3); assay type: in vivo, Female BALB/c mice; settings: tail vein at 2, 5 and 8 hours
Description: as §7, §8
Inhibitory effects on cell infiltration:
According to the report by Bradley, P. P. et al, (cf., Journal of Investigative Dermatology, 78, 206-209 (1982)), the activity of myeloperoxidase (hereinafter, referred to as MPO) in the tissue was used as an index for cell infiltration.
The ear tissue, the weight of which was measured in Experiment 3, was homogenized, and centrifuged. The MPO activity in the supernatant was measured by using the absorbance at 450 nm (hereinafter, referred to as OD) of o-dianisidine as an index, according to the method of Bradley, et al. (see the above reference).
The inhibitory rate on cell infiltration was calculated by the following equation. [formula] ODexp: Average OD in the treated group ODnega: Average OD in the non-inflammatory group
ODcont: Average OD in the control group

[5] = system: cell infiltration; test: Inhibitory effects on the peritoneal inflammation induced by thioglycollate (cell infiltration, MPO activity); assay type: in vivo, Male BALB/C mice; settings: 10 mg/kg, tail vein just before and one hour after induction, peritoneal exudate cells
Description: Inhibitory effects on the peritoneal inflammation induced by thioglycollate:
Male BALB/C mice (11-weeks old) were peritoneally injected with 3% thioglycollate medium (1 ml) to induce the inflammation. In the non-inflammation group, saline was peritoneally injected to the mice. Two hours thereafter, the mice were killed with […], and the peritoneal cavity was washed with a phosphate buffered saline containing 0.1% BSA, 0.5 mM EDTA, 10 U/ml heparin to collect the exudate cells. The red blood cells were lysed, and the exudate cells were lysed in 50 mM potassium phosphate buffer containing 0.5% hexadecyltrimethylammonium bromide. The MPO activity in the supernatant was measured according to the Bradley's method (see the above reference).
The test compound was dissolved in 0.0012M arginine-containing saline solution so as to be a concentration of 1 mg/ml. The test compound solution was injected to the mice at the tail vein in a dosage volume of 0.1 ml/10 g of the body weight, at just before and one hour after the induction of inflammation response (the treated group). In the control group, saline solution was injected to the mice.
The cell infiltration inhibitory rate was calculated in the same manner as in Experiment 4, by the equation 3.

[6] = Oral toxicity observation in mice; assay type: in vivo; settings: 1000 mg/kg orally, observed for one week
From the text: Moreover, the compound (I) of the present invention or a salt thereof show low toxicity. […] Therefore, the compound (I) of the present invention or a salt thereof is useful as a medicament.

Row | SMILES | IC50 [1] [nM] | IC50 [2] [nM] | also measured
1 | CCCCCCCCCCCCCCC(CCCCCCCCCCCCCC)C(=O)N[C@H](CO[C@@H]1O[C@@H](C)[C@@H](O)[C@@H](O)[C@@H]1O)C(=O)N[C@@H](CCC(=O)O)C(=O)NC [compound k, [N-(2-tetradecylhexadecanoyl)-O-(α-L-fucopyranosyl)-D-seryl]-L-glutamic acid 1-methylamide] | 700 | 9400 | Cell infiltration inhibitory rate [5]: 37%
2 | CCCCCCCCCCCCCCC(CCCCCCCCCCCCCC)C(=O)N[C@H](CO[C@@H]1O[C@@H](C)[C@@H](O)[C@@H](O)[C@@H]1O)C(=O)N[C@H](CCC(=O)O)C(=O)NC [compound l, [N-(2-tetradecylhexadecanoyl)-O-(α-L-fucopyranosyl)-D-seryl]-D-glutamic acid 1-methylamide] | 2100 | 18000 | 
3 | CCCCCCCCCCCCCCC(CCCCCCCCCCCCCC)C(=O)N[C@@H](CO[C@H]1O[C@@H](C)[C@@H](O)[C@@H](O)[C@@H]1O)C(=O)N[C@@H](CCC(=O)O)C(=O)NC [compound m, [N-(2-tetradecylhexadecanoyl)-O-(β-L-fucopyranosyl)-L-seryl]-L-glutamic acid 1-methylamide] | 600 | 800 | 
4 | CCCCCCCCCCCCCCC(CCCCCCCCCCCCCC)C(=O)N[C@@H](CO[C@H]1O[C@@H](C)[C@@H](O)[C@@H](O)[C@@H]1O)C(=O)N[C@H](CCC(=O)O)C(=O)NC [compound n, [N-(2-tetradecylhexadecanoyl)-O-(β-L-fucopyranosyl)-L-seryl]-D-glutamic acid 1-methylamide] | 300 | 800 | 
5 | CCCCCCCCCCCCCCC(CCCCCCCCCCCCCC)C(=O)N[C@H](CO[C@H]1O[C@@H](C)[C@@H](O)[C@@H](O)[C@@H]1O)C(=O)N[C@@H](CCC(=O)O)C(=O)NC [compound o, [N-(2-tetradecylhexadecanoyl)-O-(β-L-fucopyranosyl)-D-seryl]-L-glutamic acid 1-methylamide] | 300 | 1600 | 
6 | CCCCCCCCCCCCCCC(CCCCCCCCCCCCCC)C(=O)N[C@H](CO[C@H]1O[C@@H](C)[C@@H](O)[C@@H](O)[C@@H]1O)C(=O)N[C@H](CCC(=O)O)C(=O)NC [compound p, [N-(2-tetradecylhexadecanoyl)-O-(β-L-fucopyranosyl)-D-seryl]-D-glutamic acid 1-methylamide] | 300 | 700 | 
7 | CCCCCCCCCCCCCCC(CCCCCCCCCCCCCC)C(=O)N[C@H](CS[C@@H]1O[C@@H](C)[C@@H](O)[C@@H](O)[C@@H]1O)C(=O)N[C@H](CCC(=O)O)C(=O)NC [compound t, [N-(2-tetradecylhexadecanoyl)-S-(α-L-fucopyranosyl)-D-cysteinyl]-D-glutamic acid 1-methylamide] | 300 | 600 | 
8 | CCCCCCCCCCCCCCC(CCCCCCCCCCCCCC)C(=O)N[C@@H](CS[C@H]1O[C@@H](C)[C@@H](O)[C@@H](O)[C@@H]1O)C(=O)N[C@H](CCC(=O)O)C(=O)NC [compound u, [N-(2-tetradecylhexadecanoyl)-S-(β-L-fucopyranosyl)-L-cysteinyl]-D-glutamic acid 1-methylamide] | 1000 | 1000 | 

More lines, main results first:

Row | IC50 [1] [nM] | IC50 [2] [nM] | SMILES | also measured
9 | 300 | 500 | CCCCCCCCCCCCCCC(CCCCCCCCCCCCCC)C(=O)N[C@H](CO[C@@H]1O[C@H]([C@H](C)O)[C@@H](O)[C@@H]1O)C(=O)N[C@@H](CCC(=O)O)C(=O)NC [compound c, [N-(2-tetradecylhexadecanoyl)-O-(α-L-fucofuranosyl)-D-seryl]-L-glutamic acid 1-methylamide] | Ear swelling inhibitory rate ([3]; 0.1 mg/kg): 45%; Ear swelling inhibitory rate ([3]; 1 mg/kg): 59%; Ear swelling inhibitory rate ([3]; 10 mg/kg): 86%; Cell infiltration inhibitory rate ([4]; 0.1 mg/kg): 19%; Cell infiltration inhibitory rate ([4]; 1 mg/kg): 34%; Cell infiltration inhibitory rate ([4]; 10 mg/kg): 64%; Cell infiltration inhibitory rate [5]: 64%; change observed after oral administration [6]: no significant change was observed
10 | 100 | 200 | CCCCCCCCCCCCCCC(CCCCCCCCCCCCCC)C(=O)N[C@@H](CS[C@@H]1O[C@@H](C)[C@@H](O)[C@@H](O)[C@@H]1O)C(=O)N[C@@H](CCC(=O)O)C(=O)NC [compound q, [N-(2-tetradecylhexadecanoyl)-S-(α-L-fucopyranosyl)-L-cysteinyl]-L-glutamic acid 1-methylamide] | 
11 | 200 | 700 | CCCCCCCCCCCCCCC(CCCCCCCCCCCCCC)C(=O)N[C@@H](CS[C@@H]1O[C@@H](C)[C@@H](O)[C@@H](O)[C@@H]1O)C(=O)N[C@H](CCC(=O)O)C(=O)NC [compound r, [N-(2-tetradecylhexadecanoyl)-S-(α-L-fucopyranosyl)-L-cysteinyl]-D-glutamic acid 1-methylamide] | 
12 | 100 | 100 | CCCCCCCCCCCCCCC(CCCCCCCCCCCCCC)C(=O)N[C@H](CS[C@@H]1O[C@@H](C)[C@@H](O)[C@@H](O)[C@@H]1O)C(=O)N[C@@H](CCC(=O)O)C(=O)NC [compound s, [N-(2-tetradecylhexadecanoyl)-S-(α-L-fucopyranosyl)-D-cysteinyl]-L-glutamic acid 1-methylamide] | 
